Consider 17 molecules from patent US8034781B2, “Angiotensin-(1-7) and angiotensin-(1-7) agonists for inhibition of cancer cell growth” (Wake Forest University Health Sciences, priority 2002, dated 2011).

Square brackets hold non-standard residues; d marks the D form. Ends that are not written are not given here. Sar = CNCC(=O)O

The subject of data set [1] is vascular smooth muscle cells (VSMCs). The data set is classed as cell-based, Sprague-Dawley rats. The note with it: for effect of antagonist on Ang-(1-7) attenuation of serum-stimulated thymidine incorporation: 1 μM Ang-(1-7), FBS (FIG. 2). Here is the method:
(§1) Vascular smooth muscle cells were isolated form 12-14 week old Sprague-Dawley rats by explant culture (Freeman, E. J. et al., Hypertension, 1996, 28:104-108). Human lung and breast cancer cell lines were obtained from American Type Tissue Culture (ATTC) and included cells of the SK-LU-1 and A549 cell lines (both of which are derived from adenocarcinomas) as well as SK-MES-1 cells (derived from non-small cell lung tumors) and ZR-75-1 breast cancer cells.
(§2) Cells were grown in DMEM with 10% fetal bovine serum (FBS), […] in a humidified 37° C. incubator gassed with 5% CO2 and 95% room air. Cells were grown to subconfluence in either 24-well cluster plates or 100 mm dishes and made quiescent by treatment for 48 h with serum-depleted growth media, prior to the experiments outlined below to measure cell growth (^3H-thymidine incorporation), cell signaling or apoptosis.
To measure ^3H-thymidine incorporation, quiescent cells were incubated with serum and angiotensin peptides for 24 h at 37° C. ^3H-thymidine (0.25 μCi/well) was added and the cells incubated for an additional 4 h to incorporate the radiolabeled nucleotide. Subsequently, the cell monolayer was washed with cold phosphate-buffered saline (PBS; 50 mM NaPO4, 120 mM NaCl, pH=7.2). The adherent cells were precipitated with cold 10% TCA (4° C. for 30 min) and dissolved in 0.2% SDS in 0.1 N NaOH. Incorporated ^3H-thymidine was determined by liquid scintillation spectrometry, as previously described (Freeman, E. J. et al., Hypertension, 1996, 28:104-108). Growth inhibition was defined as a reduction in the amount of ^3H-thymidine incorporation as compared to the mitogen-stimulated controls.
During an additional 4 h, cell monolayers were pulsed with ^3H-thymidine (0.25 μCi/well) and harvested.
(In general: Incorporation of labelled thymidine or its analogues reports DNA synthesis.)

Data set [2] is described as follows: Balloon catheter injury to the rat carotid artery, intravenous minipump infusion. The data set is classed as in vivo. The conditions noted are these: rat, plasma, 24 ug/kg/h; intravenous minipump 24 μg/kg/h, 12 days, carotid artery-injured rats. An excerpt:
(§3) In these same animals, the cross-sectional area of the neointima was reduced to 0.09±0.01 mm^2 as compared to 0.12±0.02 mm^2 in saline-treated controls (p<0.05).

Data set [3] concerns vascular growth stimulated by balloon catheter injury to the rat carotid artery. The data set is described as above. The format is in vivo.
From the text: as §3

Data set [4] deals with SK-LU-1 lung cancer cells. The format is cell-based, human. The conditions noted are these: for effect of antagonist on inhibition of serum-stimulated growth by Ang-(1-7): SK-LU-1 (FIG. 7); for effect on serum-stimulated 3H-thymidine incorporation: SK-LU-1, peptide at 1 or 100 nM (FIG. 8).
Procedure: (§6) Cells were grown in DMEM with 10% fetal bovine serum (FBS), 100 μg/mL penicillin and 100 units/mL streptomycin in a humidified 37° C. incubator gassed with 5% CO2 and 95% room air. Cells were grown to subconfluence in either 24-well cluster plates or 100 mm dishes and made quiescent by treatment for 48 h with serum-depleted growth media, prior to the experiments outlined below to measure cell growth (^3H-thymidine incorporation), cell signaling or apoptosis.
The subject of data set [5] is SK-MES-1 lung cancer cells. The format is cell-based, human.
Procedure: as §6
To measure ^3H-thymidine incorporation, quiescent cells were incubated with serum and angiotensin peptides for 24 h at 37° C. ^3H-thymidine (0.25 μCi/well) was added and the cells incubated for an additional 4 h to incorporate the radiolabeled nucleotide. Subsequently, the cell monolayer was washed with cold phosphate-buffered saline (PBS; 50 mM NaPO4, 120 mM NaCl, pH=7.2). […] Incorporated ^3H-thymidine was determined by liquid scintillation spectrometry, as previously described (Freeman, E. J. et al., Hypertension, 1996, 28:104-108). […]
In data set [6] the test system is ZR-75-1 breast cancer cells. The data set is classed as cell-based, human. Here is the method: as §1, §2
To measure ^3H-thymidine incorporation, quiescent cells were incubated with serum and angiotensin peptides for 24 h at 37° C. ^3H-thymidine (0.25 μCi/well) was added and the cells incubated for an additional 4 h to incorporate the radiolabeled nucleotide. […] Incorporated ^3H-thymidine was determined by liquid scintillation spectrometry, as previously described (Freeman, E. J. et al., Hypertension, 1996, 28:104-108). […]

In data set [7] the test system is vascular growth stimulated by balloon catheter injury to the rat carotid artery. The conditions noted are these: previous studies with rats, 24 μg/kg/hr; cited from earlier work.
The target of the next data set is T1, AT2 angiotensin receptor (Homo sapiens, UniProt P50052).
T1 sequence (P50052 1-363): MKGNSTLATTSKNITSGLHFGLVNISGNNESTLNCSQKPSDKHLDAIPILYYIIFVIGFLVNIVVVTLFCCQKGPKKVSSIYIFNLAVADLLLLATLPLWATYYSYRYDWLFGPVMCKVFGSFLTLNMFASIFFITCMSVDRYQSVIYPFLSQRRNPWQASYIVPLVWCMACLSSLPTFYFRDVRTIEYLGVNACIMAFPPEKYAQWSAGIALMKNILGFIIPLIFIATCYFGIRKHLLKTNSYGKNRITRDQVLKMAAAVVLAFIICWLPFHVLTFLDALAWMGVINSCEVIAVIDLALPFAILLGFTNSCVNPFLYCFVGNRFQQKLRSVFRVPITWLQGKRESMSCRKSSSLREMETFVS
The conditions noted are these: cited from earlier work.

Data set [8] has as its system vascular smooth muscle cells (VSMCs). In words: Total cell number of VSMCs by Coulter counter. The conditions noted are these: Ang II alone. The data set is classed as cell-based, Sprague-Dawley rats. Here is the method:
Total cell number in response to treatment with Ang-(1-7) was also determined using a Coulter counter. The number of cells per well increased to 142% of basal following treatment with 1% serum.

In another data set the test system is ERK1. Briefly: ERK1 phosphorylation in VSMCs, phospho-specific antibodies. The format is cell-based, rat. Here is the method: (§4) Reactions were terminated with Triton lysis buffer (50 mM Tris-HCl, pH 7.4, 1% Triton X-100, 100 mM NaCl, 5 mM EDTA, 50 mM NaF, 0.6 μM leupeptin, 0.01 mM Na3VO4 and 0.1 mM PMSF) and protein concentrations determined (Lowry, O. H., et al., J. Biol. Chem., 1951, 193:265-275). Proteins were separated by SDS polyacrylamide gel electrophoresis and transferred to polyvinyl membranes. The activation and autophosphorylation of ERK1 and ERK2 was determined using antibodies specific for the phosphorylated kinases (using antibodies from Cell Signaling Technologies). The immunoreactive product were visualized by enhanced chemiluminescence (ECL, Amersham) and quantified by densitometry, using the MCID image analysis system. The phospho-MAP kinase antibodies only recognize the catalytically activated and phosphorylated forms of MAP kinase (both ERK1 and ERK2 MAP kinase). The blots were also probed with antibodies to ERK1/2, to control for protein loading.
(§5) The activity of the MAP kinases ERK1 and ERK2 in VSMCs was measured using phospho-specific antibodies that only recognize the activated protein kinases.

In a further data set the test system is ERK2. In words: ERK2 phosphorylation in VSMCs, phospho-specific antibodies. The format is cell-based, rat. Here is the method:
as §4, §5

Another data set concerns AT1 angiotensin receptor. The conditions noted are these: cited from earlier work.
[9] abbreviates: lisinopril 20 mg/kg/day for 14 days.
Setting [10] is: maximal stimulation by 1 μM Ang II.

As for `C#CCCCCCCCCCCCCCCCC(=O)O` [17-octadecynoic acid], in data set [1] (VSMCs, cytochrome P450 inhibitor), the “effect on growth inhibition by Ang-(1-7)” value is recorded as “neither a lipoxygenase inhibitor nor the cytochrome P450 inhibitor 17-octadecynoic acid had any effect”.

In the case of `CC[C@H](C)[C@H](NC(=O)[C@H](Cc1ccc(O)cc1)NC(=O)[C@@H](NC(=O)[C@H](CCCNC(=N)N)NC(=O)[C@@H](N)CC(=O)O)C(C)C)C(=O)N[C@@H](Cc1c[nH]cn1)C(=O)N1CCC[C@H]1C(=O)O` [Ang-(1-7), Asp-Arg-Val-Tyr-Ile-His-Pro], in data set [2], the level at time molar at 288 h amounted to 0.131 ± 0.0397 nM. Further, the blood pressure entry in data set [3] (Ang-(1-7) infusion vs saline) is “similar”. The heart rate entry in data set [3] (Ang-(1-7) infusion vs saline) was “similar”. The IC50 (usually the concentration at which inhibition is half-maximal) in [4] stood at 0.05 nM; in [5] it was 0.4 nM; in data set [6] it was 0.02 nM. In addition, in data set [7], the “change in weight, blood pressure, or heart rate” value is on record as “no change”. Besides, the “IC50 levels at the AT2 angiotensin receptor” value on AT2 angiotensin receptor is recorded as “micromolar range”.

For `CCc1nc2c(C)cc(C)nc2n1Cc1ccc(-c2ccccc2-c2nn[nH]n2)cc1` [L158,809], the “effect of antagonist on Ang-(1-7) attenuation of serum-stimulated thymidine incorporation” value in [1] (VSMCs) is reported as “unaffected”.

On to `CCCCc1nc(Cl)c(CO)n1Cc1ccc(-c2ccccc2-c2nn[nH]n2)cc1` [Losartan], for which the “effect of antagonist on inhibition of serum-stimulated growth by Ang-(1-7)” value in [4] was “neither AT1 nor AT2 angiotensin receptor antagonists Losartan and PD123177, respectively, were effective”.

For the molecule `Cc1cc(Cn2cnc3c2CC(C(=O)O)N(C(=O)C(c2ccccc2)c2ccccc2)C3)ccc1N` (centres unmarked) [PD123177], in [1] (VSMCs), the “effect of antagonist on Ang-(1-7) attenuation of serum-stimulated thymidine incorporation” value is reported as “unaffected”. Also, the “effect of antagonist on inhibition of serum-stimulated growth by Ang-(1-7)” value in data set [4] is “neither AT1 nor AT2 angiotensin receptor antagonists Losartan and PD123177, respectively, were effective”.

As for `Cc1cc(Cn2cnc3c2C[C@@H](C(=O)O)N(C(=O)C(c2ccccc2)c2ccccc2)C3)ccc1N(C)C` [PD 123319], the “effect of antagonist on Ang-(1-7) attenuation of serum-stimulated thymidine incorporation” value in data set [1] (VSMCs) was “not prevented”.

Consider `CCN(CC)CC.Nc1ncnc2c1ncn2[C@@H]1O[C@@H]2COP(O)(=S)O[C@H]2[C@H]1O` (some centres unmarked) [Rp-cAMPS, Rp-adenosine-3′,5′-cyclic monphosphophorothioate triethylamine salt], for which the “effect on reduction in serum-stimulated 3H-thymidine incorporation by Ang-(1-7) or carbacyclin” value in data set [1] (VSMCs, pretreatment 10 μM (FIG. 10)) is “completely blocked”.

`CCCCC[C@H](O)/C=C/[C@@H]1[C@H]2C/C(=C/CCCC(=O)O)C[C@H]2C[C@H]1O` [carbacyclin]: the “effect on serum-stimulated 3H-thymidine incorporation” value in data set [1] (VSMCs, 5 μM (FIG. 10)) is listed as “reduction”.

Turning to `NCCCC[C@H](N[C@@H](CCc1ccccc1)C(=O)O)C(=O)N1CCC[C@H]1C(=O)O` [lisinopril], in [3] (setting [9]), the “cross-sectional area of the neointima” value turned out to be 0.09±0.01 mm^2 and the “elevation of plasma levels of Ang-(1-7) vs saline” value worked out at 2.3 fold. Also, the “plasma levels of Ang-(1-7)” value in data set [3] (lisinopril 20 mg/kg/day for 14 days, balloon catheter injury) amounted to 99.1 ± 6.7 pM.

As to “Arg-Val-Tyr-Ile-His-Pro-Phe (RVYIHPF; listed as Homo sapiens) [Ang-(2-8)]”, in data set [4], the “effect on serum-stimulated 3H-thymidine incorporation” value is on record as “ineffective”.

Take “Asp-Arg-Val-Tyr-Ile-His-Pro-Phe (DRVYIHPF; listed as Homo sapiens) [Ang II]”: the “effect on 3H-thymidine incorporation into VSMCs” value in [1] (peptide alone, dose response (FIG. 1)) is “dose-dependent stimulation”. For the same molecule, the “number of cells per well” value in [8] is listed as 145 % of basal. The “effect on serum-stimulated 3H-thymidine incorporation” value in data set [4] was “ineffective”. In the data set with ERK1 (setting [10]), the “increase in ERK1 phosphorylation over basal” value was found to be 37 fold. In the data set with ERK2 (setting [10]), the “increase in ERK2 phosphorylation over basal” value stood at 166 fold.

For “Asp-Arg-Val-Tyr-Ile-His-[D]Ala (DRVYIH[dA]) [[D-Ala^7]-Ang-(1-7)]”, the “effect of antagonist on Ang-(1-7) attenuation of serum-stimulated thymidine incorporation” value in data set [1] (VSMCs) is listed as “blocked”. Also, in [4], the “effect of antagonist on inhibition of serum-stimulated growth by Ang-(1-7)” value is on record as “blocked”. Further, the “competition at the AT1 receptor” value in the data set on AT1 angiotensin receptor was “poor competitor”. In addition, in the data set with AT2 angiotensin receptor, the “competition at the AT2 receptor” value is reported as “poor competitor”.

For the molecule DRVYIHPFHL [Ang I], the “effect on serum-stimulated 3H-thymidine incorporation” value in [4] is “ineffective”.

In the case of PDGF, the “increase of ERK1 activity over basal” value in the data set on ERK1 (10 ng/mL PDGF) is given as 16 fold. Moreover, in the data set with ERK2 (10 ng/mL PDGF), the “increase of ERK2 activity over basal” value is on record as 26 fold.

Regarding “Sar-Arg-Val-Tyr-Ile-His-Pro-Thr ([Sar]RVYIHPT) [[Sar^1-Thr^8]-Ang II]”, the “effect of antagonist on Ang-(1-7) attenuation of serum-stimulated thymidine incorporation” value in data set [1] (VSMCs) is listed as “completely blocked”.

On to “Val-Tyr-Ile-His-Pro (VYIHP; listed as Homo sapiens) [Ang-(3-7)]”, for which the “effect on serum-stimulated 3H-thymidine incorporation” value in [4] was “ineffective”.

For the molecule “Val-Tyr-Ile-His-Pro-Phe (VYIHPF; listed as Homo sapiens) [Ang-(3-8)]”, the “effect on serum-stimulated 3H-thymidine incorporation” value in data set [4] is “ineffective”.
